From patent publication US20220296623A1, “REDUCED NICOTINAMIDERIBOSIDES FOR TREATING OR PREVENTING KIDNEY DISEASE” (SOCIETE DES PRODUITS NESTLE S.A., priority 2019, published 2022)
Counter-ions that a name gives are not always drawn.

Experiments:
[1] = Stability of NRH or NR spiked in isolated mouse plasma; assay type: in vitro ADME; conditions: 2 h of incubation
Source text: (§1) Levels of NRH and other NAD-related metabolites in biological samples were obtained by using a cold liquid-liquid extraction using a mixture of methanol:water:chloroform in 5:3:5 (v/v), from which the polar phase was recovered for hydrophilic interaction ultra-high performance liquid chromatography mass spectrometry (UHPLC-MS) analysis. The UHPLC consisted of a binary pump, a cooled autosampler, and a column oven (DIONEX Ultimate 3000 UHPLC+ Focused, Thermo Scientific), connected to a triple quadrupole spectrometer (TSQ Vantage, Thermo Scientific) equipped with a heated electrospray ionisation (H-ESI) source. Of each sample, 2 μL were injected into the analytical column (2.1 mm×150 mm, 5 μm pore size, 200 Å HILICON iHILIC®-Fusion(P)), guarded by a pre-column (2.1 mm×20 mm, 200 Å HILICON iHILIC®-Fusion(P) Guard Kit) operating at 35° C. The mobile phase (10 mM ammonium acetate at pH 9, A, and acetonitrile, B) was pumped at 0.25 mL/min flow rate over a linear gradient of decreasing organic solvent (0.5-16 min, 90-25% B), followed by re-equilibration for a total run time of 30 min. The MS operated in positive mode at 3500 V with multiple reaction monitoring (MRM). The software Xcalibur v4.1.31.9 (Thermo Scientific) was used for instrument control, data acquisition and processing. Retention time and mass detection was confirmed by authentic standards.
(§2) NR degradation to NAM has been proposed as a limitation for its pharmacological efficacy. To evaluate whether NRH was also susceptible to degradation to NAM, we spiked NRH or NR in isolated mouse plasma. […] We also tested the stability of NRH in other matrixes.

[2] = Stability in FBS supplemented media; assay type: in vitro ADME
Source text: as §2

[3] = tested on: NAD+ levels in liver, muscle and kidney; experiment: Tissue NAD+ levels after intraperitoneal injection of NR or NRH; assay type: in vivo, mice; conditions: IP 500 mg/kg, after 1 h
Procedure: (§3) The above results prompted us to test whether NRH could act as an effective NAD+ precursor in vivo. For this, we first intraperitoneally (IP) injected mice with either NR or NRH (500 mg/kg).

[4] = Circulating NAM, NRH and NR after intraperitoneal injection; assay type: in vivo, mice; conditions: IP 500 mg/kg
Source text: as §1, §3

[5] = set-up: species or system mice; conditions: mouse, in vivo, po
Source text: as §1
Oral administration of NRH led to very similar results to those observed after IP administration. […] In contrast, NR levels were undetectable at 1 h after NR administration. As expected, NR treatment led to large increases in circulating NAM, which where ˜4-fold higher than those observed after NRH treatment.

NRK1 = experiment: NAD+ levels in primary hepatocytes from control or NRK1 knockout mice; conditions: 1 hour of treatment

compound levels in isolated mouse plasma [1]: decayed in plasma
generation of NAM in isolated mouse plasma [1]: increase in NAM
degradation to NAM in FBS supplemented media [2]: as occurs with NR
NAM levels in circulation [4]: highly increased in circulation
circulating NAM after NR treatment relative to NRH treatment ([5]; C57BI/6NTac, 1 h): ~4 fold
administered compound in plasma [5]: undetectable
NAD+ levels in NRK1KO derived primary hepatocytes (NRK1): failed to increase NAD+ levels
Structure (SMILES): NC(=O)c1ccc[n+]([C@@H]2O[C@H](CO)[C@@H](O)[C@H]2O)c1 [NR, 1-b-D-ribofuranosyl-3-pyridinecarboxamide salt, reference compound]
NAD+ levels in kidney [3]: increased NAD+ levels
NAD+ levels in liver [3]: increased NAD+ levels
NAD+ levels in muscle [3]: increased NAD+ levels
